Square brackets hold non-standard residues; d marks the D form. Ends that are not written are not given here. * marks the point of attachment. Octanoyl = CCCCCCCC(=O)*
Experiments:
Assay type in all cases: cell-based, Wistar rat
cultured fetal skin cell [1] = test: [3H]-thymidine uptake acceleration in cultured fetal skin cell; details: ghrelin 0.5, 5 and 50 pmol/mL (nM); incubated 24 or 48 hours; versus control without ghrelin; FIG. 3
Description: The skin cells of a rat fetus were collected from a Wistar rat on the 17th day of pregnancy, and a dispersion liquid thereof was obtained in the same manner as in Example 2. The dispersed cells were suspended in a MCDB153HAA medium (F-Peptide Co., Ltd., Yamagata, Japan) containing 2% fetal bovine serum, penicillin (100 U/mL), streptomycin (100 μg/mL) and epidermal growth factor EGF (5 ng/mL), and sowed on a polyethyleneimine coated 48-hole multi-well plate in an amount of 5×10^5 cells/well. Ghrelin ([…] (nM))) and [^3H]-thymidine (2 μCi/mL) were added thereto, which was then incubated for 24 hours or 48 hours. A culture solution without containing ghrelin was prepared as a control. After the incubation was over, the cells were collected and radioactivity was measured.
The results are shown in FIG. 3 (black triangle: 50 pmol/mL, black square: 5 pmol/mL, black circle: 0.5 pmol/mL, white circle: control).

cultured fetal skin cell [2] = test: Cell proliferation acceleration (BrdU uptake, Proliferation ELISA) in cultured fetal skin cell; details: ghrelin 0.05 to 500 pmol/mL (nM) or GHRP6 0.05 to 50 pmol/mL (nM); 24 hours; versus control medium; FIG. 4
Description: The fetal skin cells were collected from a Wistar rat on the 17th day of pregnancy, and a dispersion liquid thereof was obtained in the same manner as in Example 2. The dispersed cells with ghrelin (0.05 to 500 pmol/mL (nM)) or GHRP6 (0.05 to 50 pmol/mL (nM)) were suspended in a MCDB153HAA medium (F-Peptide Co., Ltd., Yamagata, Japan) containing 2% fetal bovine serum, penicillin (100 U/mL), streptomycin (100 μg/mL) and epidermal growth factor EGF (5 ng/mL), and sowed on a polyethyleneimine coated 96-hole multi-well plate in an amount of 3×10^4 cells/well. A medium without containing ghrelin or GHRP6 was used as a control. 5-bromo-2′-deoxyuridine (BrdU) (10 μM) was added thereto, which was then incubated for 24 hours. After the culture was over, uptake quantity of BrdU into the fetal skin cell was measured using Proliferation ELISA Kit (Roche Diagnostic GmbH. Manheim, Germany) to consider the skin cell growth activity.

[3] = tested on: fetal skin cell having GHS-R1a; test: Intracellular calcium-increasing activity in cultured fetal skin cell (Fura-2 calcium imaging); details: single skin cell of rat fetus
Description: A Wistar rat on the 17th day of pregnancy underwent laparotomy under anesthesia for fetus extraction. A small piece of skin was collected from the fetus, treated with collagenase in cold Hank's solution, digested with papain, and mechanically separated by pipetting. This gave a dispersion liquid of the fetal skin cells. A single cell was obtained from the dispersion liquid, ghrelin was added thereto, and calcium imaging was performed. For the calcium imaging, a calcium imaging device (IMACS, Hamamatsu Photonics) was used. That is, the ratio of the emission at a wavelength of 510 nm was measured when excitation was performed by 340 nm/380 nm light. Fura-2 was used as a calcium imaging agent. Ghrelin derived from a rat (SEQ ID NO: 3) was used (the same in the following Examples).
In FIG. 2, I, II and III are the points at which a photograph was taken, but the photographs are omitted from the present description. […] Ghrelin and desacylghrelin were added to different cells, respectively.

Substance	uptake of [3H]-thymidine into the cell (cultured fetal skin cell [1])	uptake of BrdU into the fetal skin cell (cultured fetal skin cell [2])	intracellular calcium in a single fetal skin cell ([3]; ghrelin 1×10^−6 M, day 17 of pregnancy, Fura-2, 340 nm/380 nm ratio, FIG. 2)	calcium response of a single fetal skin cell (FIG. 2 curve) ([3]; dotted-line curve of FIG. 2, concentration not given)
GSS (n-octanoyl) FLSPEHQKAQQRKESKKPPAKLQPR (GSS(Octanoyl)FLSPEHQKAQQRKESKKPPAKLQPR; listed as Rattus norvegicus) [ghrelin, 28-residue peptide, serine 3 acylated with n-octanoyl, endogenous GHS-R1a ligand]	increased	significantly increased	increase of calcium was observed	
H[dW]AW[dF]K-NH2 [GHRP6, reference compound]		significantly increased		
desacylghrelin [reference compound]				responded

Source: patent publication US20090181888A1, “Skin Repair Accelerating Therapeutic Agent Containing Ghrelin and Derivatives Thereof or Substance Acting On GHS-R1a as Active Ingredient” (priority 2005, published 2009)
